The values below come from patent US20040266857A1, “Novel lapachone compounds and methods of use thereof” (priority 2002, published 2004).

For series [1], the system named is MIA PACA-2 human pancreatic carcinoma cells. Nature of the series: Cell proliferation (colony formation) assay, PaCa-2. In kind it is cell-based. The conditions noted are these: cancer cell line PaCa-2, 4 h exposure, colonies scored after 10-15 days, compounds added in micromolar concentrations, read-out: Average IC50 Pancr. PaCa-2. On the procedure:
(§1) Cell proliferation assays were performed as described previously (Müller et al., (1996) J. Med. Chem. 39: 3132-3138; Müller et al., (1994) J. Med. Chem. 37: 1660-1669). More specifically, exponentially growing cells were seeded at 1,000 cells per well in six-well plates and allowed to attach for 24 h. […] Control wells were treated with equivalent volumes of DMSO. After 4 h, the supernatant was removed and fresh medium was added. Cultures were observed daily for 10-15 days and then were fixed and stained. Colonies of greater than 30 cells were scored as survivors. The assays of the present invention as shown in Table 2 and methods of measuring induction of E2F activity and elevation of E2F levels can be carried out following the descriptions found in Li et al., (2003) Proc Natl Acad Sci USA. 100(5): 2674-8 and U.S. Patent Application Publication No.2002/0169135, both incorporated herein by reference in their entireties.

In series [2] the test system is A549 human lung carcinoma cells. Nature of the series: Cell proliferation (colony formation) assay, A549. In kind it is cell-based. The conditions noted are these: cancer cell line A549, 4 h exposure, colonies scored after 10-15 days, compounds added in micromolar concentrations. On the procedure: as §1, with “The assays of the present invention as shown in Table 2 and methods of measuring induction of E2F activity and elevation of E2F levels can be carried out following the descriptions found in Li et al., (2003) Proc Natl Acad Sci USA.” left out

Series [3] concerns HT-29 human colon carcinoma cells. Nature of the series: Cell proliferation (colony formation) assay, HT-29. The format is cell-based. The conditions noted are these: cancer cell line HT-29, 4 h exposure, colonies scored after 10-15 days, compounds added in micromolar concentrations. On the procedure: as §1
Series [4] concerns NCM 460 normal colonic epithelial cells. Nature of the series: Cell proliferation (colony formation) assay, NCM460 normal cells. In kind it is cell-based. The conditions noted are these: Homo sapiens; normal cell line NCM460; 4 h exposure, colonies scored after 10-15 days; compounds added in micromolar concentrations; read-out: Average IC50 Normal Cell Lines Colon NCM460. On the procedure: as §1

The subject of series [5] is MCF 10A normal breast epithelial cells. Briefly: Cell proliferation (colony formation) assay, MCF10A normal cells. In kind it is cell-based. The conditions noted are these: Homo sapiens, normal cell line MCF10A, 4 h exposure, colonies scored after 10-15 days, compounds added in micromolar concentrations, read-out: Average IC50 Normal Cell Lines Breast MCF10A. How it is done: as §1

Series [6] deals with DLD1 human colon carcinoma cells. Briefly: Cell proliferation (colony formation) assay, DLD1. In kind it is cell-based. The conditions noted are these: DLD-1, cancer cell line DLD1, 4 h exposure, colonies scored after 10-15 days, compounds added in micromolar concentrations. How it is done: as §1
Series [7] concerns SW-480 human colon carcinoma cells. Nature of the series: Cell proliferation (colony formation) assay, SW480. In kind it is cell-based. The conditions noted are these: cancer cell line SW480, 4 h exposure, colonies scored after 10-15 days, compounds added in micromolar concentrations. On the procedure:
as §1

In series [8] the test system is MCF-7 human breast carcinoma cells. Briefly: Cell proliferation (colony formation) assay, MCF7. The format is cell-based. The conditions noted are these: cancer cell line MCF7, 4 h exposure, colonies scored after 10-15 days, compounds added in micromolar concentrations. How it is done: as §1
For another series, the system named is human cancer cell lines. The conditions noted are these: single agent; typical range; read-out: antineoplastic activity against human cancer cell lines (IC50); cited from earlier work.
The subject of series [9] is normal fresh or proliferating human PBMC. The conditions noted are these: cited from earlier work.
Series [10] deals with E2F family of transcription factors. The conditions noted are these: cancer cells versus normal cells; cited from earlier work.
The subject of series [11] is cancer cell lines and normal cells. The conditions noted are these: Li et al. 2003; cited from earlier work.

pIC50: −log10 of the molar value.

As to `CC1(C)CCSC2=C1C(=O)C(=O)c1ccccc12` [Compound 6, 3,4-dihydro4,4-dimethyl-2H-naphtho[1,2-b]thiopyran-5,6-dione], the pIC50 in series [1] was 5.92; in series [2] it was 5.80; in [3], 5.80; in series [4], 5.22; in series [5], 5.20.

Turning to `CC1SC2=C(C(=O)C(=O)c3ccccc32)C1(C)C` (stereo not drawn) [Compound 3, 2,3,3-trimethyl-2H-3H-naphtho[1,2-b]thiophene-4,5-dione], the pIC50 in series [6] is 6.05; in [7], 6.05; in series [8], 6.00; in series [3], 5.82; in series [4], 5.70.

`CC1(C)CCC2=C(O1)c1ccccc1C(=O)C2=O` [β-Lapachone, 3,4-dihydro-2,2-dimethyl-2H-naphtho[1,2-b]pyran-5,6-dione, reference compound]: the pIC50 in [6] was 5.44; in series [7], 5.48; in [8], 6.00; in series [1], 5.80; in series [3] it was 5.68; in [4] it was 5.09. Further, the pIC50 in [5] is 5.24; in the series with human cancer cell lines, 5.00 to 6.00. For the same compound, in [9], the “cytotoxic effects on normal human PBMC” value was “No cytotoxic effects”. In addition, in [10], the “induction of sustained E2F activity in nuclei of cancer cells but not in normal cells” value is recorded as “induces sustained E2F activity”. Also, the “induction of apoptosis in cancer cell lines versus normal cells” value in [11] is “induces apoptosis only in cancer cell lines and not in normal cells”.

As for `O=C1C(=O)c2ccccc2C2=C1C(c1ccccc1)CCS2` (stereo not drawn) [Compound 7, 3,4-dihydro-4-phenyl-2H-naphtho[1,2-b]thiopyran-5,6-dione], the pIC50 in [1] was 5.64; in [2], 5.70; in series [3] it was 5.66; in series [4], 5.06; in series [5], 5.15.

Take `CC1(C)CCC2=C(S1)C(=O)c1ccccc1C2=O` [Compound 2, 3,4-dihydro-2,2-dimethyl-2H-naphtho[2,3-b]thiopyran-5,10-dione]: the pIC50 was 4.49 in series [6], 4.49 in series [7] and 4.80 in series [8].

As to `CC1OC2=C(C(=O)C(=O)c3ccccc32)C1(C)C` (stereo not drawn) [Dunnione, 2,3,3-trimethyl-2,3,4,5-tetrahydro-naphtho(2,3-b)dihydrofuran-6,7-dione, reference compound], the pIC50 is 5.55 in series [6], 5.55 in [7], 6.00 in [8] and 5.40 in series [4].

On to `CC1SC2=C(C(=O)C(=O)c3ccccc32)C1(c1ccccc1)c1ccccc1` (stereo not drawn) [Compound 5, 2-methyl-3,3-diphenyl-2H-3H-naphtho[1,2-b]thiophene4,5-dione], for which the pIC50 in series [1] is 5.89; in series [2], 5.64; in series [3], 5.77; in series [4] it was 5.11; in series [5] it was 5.23.

In the case of `CC1OC2=C(SC1C)c1ccccc1C(=O)C2=O` (stereo not drawn) [Compound 10, 2,3-dimethyl-11,12-dehydro-naphtho[1,2-b]thioxane-9,10-dione], the pIC50 in [7] was 6.00; in [1], 5.70; in series [2], 5.74; in series [3] it was 5.70; in series [4], 5.21; in [5], 5.10.

In the case of `CC1SC2=C(OC1(C)C)C(=O)C(=O)c1ccccc12` (stereo not drawn) [Compound 12, 2,2,3-trimethyl-11,12-dehydro-naphtho[1,2-b]thioxane-9,10-dione], the pIC50 in series [1] was 5.66; in series [2], 5.51; in series [3] it was 5.40; in series [4], 4.88; in [5], 4.85.

`CC1(C)CCC2=C(S1)c1ccccc1C(=O)C2=O` [Compound 1, 3,4-dihydro-2,2-dimethyl-2H-naphtho[1,2-b]thiopyran-5,6-dione]: the pIC50 was 5.70 in [6]; 5.82 in series [7]; 6.00 in series [8]; 5.82 in series [1]; 5.77 in series [2]; 5.74 in series [3]. In addition, the pIC50 in [4] was 5.12; in [5], 5.17.

With `CC1CSC2=C(O1)C(=O)C(=O)c1ccccc12` (stereo not drawn) [Compound 9, 2-methyl-11,12-dehydro-naphtho[1,2-b]thioxane-9,10-dione], the pIC50 in series [7] was 5.82; in [1], 5.85; in [2], 5.70; in [3], 5.82; in series [4], 5.31; in series [5] it was 5.19.

The pIC50 is the IC50 on a negative log10 scale, so that one unit is a factor of ten.
